pEC50, pIC50: −log10 of the molar value. Where a SMILES comes first, the peptide text is derived from it. [ ]: non-standard residue; d: D form. d2Nal = N[C@H](Cc1ccc2ccccc2c1)C(=O)O; Aib = CC(C)(N)C(=O)O
Experiments:
[1] = Compound was tested for oral bioavailability after 10 mg/kg administration (Po) in Beagle dogs; F % Oral Bioavailability; format: ADME, organism-based, Canis lupus familiaris; details: dog, in vivo
[2] = Oral bioavailability in dog (Beagle) (dose 2.5 mg/kg); format: ADME, organism-based, Canis lupus familiaris; details: in vivo
[3] = Oral bioavailability in dog (Beagle); format: ADME, organism-based, Canis lupus familiaris; details: in vivo; for bioavailability: beagle
Rattus norvegicus [4] = species on record: Rattus norvegicus; assay: Compound was tested against the effect of D-Lys3-GHRP-6 on the release of growth hormone from pituitary cells in rat; format: functional, cell-based; details: Pituitary gland cell
Rattus norvegicus [5] = species on record: Rattus norvegicus; assay: Compound was tested against the effect of L-692400 on the release of growth hormone from pituitary cells in rat; format: functional, cell-based; details: Pituitary gland cell
[6] = biological target: Growth hormone secretagogue receptor type 1 (Rattus norvegicus, UniProt O08725); assay: (§1) Tested for GH-releasing property using classical rat pituitary cell assay; format: functional, cell-based, Pituitary gland cell
Growth hormone secretagogue receptor type 1, sequence (O08725 whole entry): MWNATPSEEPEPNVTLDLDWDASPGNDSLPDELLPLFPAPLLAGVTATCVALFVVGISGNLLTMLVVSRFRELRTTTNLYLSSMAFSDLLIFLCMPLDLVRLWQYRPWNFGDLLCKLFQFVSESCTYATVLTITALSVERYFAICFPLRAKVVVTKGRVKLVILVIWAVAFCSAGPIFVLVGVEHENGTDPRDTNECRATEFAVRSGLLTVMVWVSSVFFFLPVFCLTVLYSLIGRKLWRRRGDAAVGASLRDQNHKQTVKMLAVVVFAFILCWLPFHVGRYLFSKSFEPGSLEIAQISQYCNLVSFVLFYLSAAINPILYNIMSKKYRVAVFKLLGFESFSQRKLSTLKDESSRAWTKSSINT

Rattus norvegicus [7] = species on record: Rattus norvegicus; assay: Compound was tested against the effect of N-acetyl-Tyr-D-Arg(1-29)GHRH-NH2 on the release of growth hormone from pituitary cells in rat; format: functional, cell-based; details: Pituitary gland cell
Rattus norvegicus [8] = species on record: Rattus norvegicus; assay: Compound was tested against the effect of substance P antagonist on the release of growth hormone from pituitary cells in rat; format: functional, cell-based; details: Pituitary gland cell
Sus scrofa [9] = assay: Compound was tested for potency against GH release iv administration in swine; format: functional
Sus scrofa [10] = assay: Compound was tested for efficacy against GH release iv administration in swine; format: functional
[11] = Compound was tested for maximum concentration in blood after 10 mg/kg administration (Po) in Beagle dogs; nmol/L maximum blood concentration; details: dog
[12] = Compound was tested for maximum concentration in blood after 2.5 mg/kg administration (Po) in Beagle dogs; nmol/L maximum blood concentration; details: dog
[13] = biological target: Growth hormone secretagogue receptor type 1 (Rattus norvegicus) (UniProt O08725); assay: as §1; format: functional, cell-based; details: Pituitary gland cell
Growth hormone secretagogue receptor type 1 (Rattus norvegicus), sequence (O08725 whole entry): as above

Sus scrofa [14] = assay: Tested for in vivo activity against GH release after iv administration in swine
Canis familiaris [15] = assay: Compound was tested Growth Hormone(GH) release after 0.5 mg/kg administration (Po) in Beagle dogs; format: functional, organism-based; design: dose 0.5 mg/kg; details: Canis lupus familiaris
Canis familiaris [16] = assay: Compound was tested Growth Hormone(GH) release after 10 mg/kg administration (Po) in Beagle dogs; format: functional, organism-based; design: dose 10 mg/kg; details: Canis lupus familiaris
Canis familiaris [17] = assay: Compound was tested Growth Hormone(GH) release after 2.5 mg/kg administration (Po) in Beagle dogs; format: functional, organism-based; design: dose 2.5 mg/kg; details: Canis lupus familiaris
[18] = Compound was tested for maximum blood concentration after 0.5 mg/kg administration (Po) in Beagle dogs; nM/L maximum blood concentration; format: ADME, organism-based, Canis lupus familiaris; design: route oral, dose 0.5 mg/kg; details: dog
[19] = Compound was tested for maximum blood concentration after 10 mg/kg administration (Po) in Beagle dogs; nM/L maximum blood concentration; format: ADME, organism-based, Canis lupus familiaris; design: route oral, dose 10 mg/kg; details: dog
[20] = Compound was tested for maximum blood concentration after 2.5 mg/kg administration (Po) in Beagle dogs; nM/L maximum blood concentration; format: ADME, organism-based, Canis lupus familiaris; design: route oral, dose 2.5 mg/kg; details: dog
[21] = Compound was tested for oral bioavailability after 0.5 mg/kg administration (Po) in Beagle dogs; fpo % Oral Bioavailability; format: ADME, organism-based, Canis lupus familiaris; details: dog, in vivo
[22] = Compound was tested for oral bioavailability after 10 mg/kg administration (Po) in Beagle dogs; fpo % Oral Bioavailability; format: ADME, organism-based, Canis lupus familiaris; details: dog, in vivo
Sus scrofa [23] = assay: Compound was tested for potency against GH release upon iv administration in swine; format: functional
Sus scrofa [24] = assay: Compound was tested for efficacy against GH release upon iv administration in swine; format: functional

SMILES	pEC50 [6]	Emax [13] [%]	bioavailability [3] [%]	Cmax [GH] (Sus scrofa [14]) [ng/mL]	further results
C[C@@H](O)CNC(=O)[C@@H](Cc1ccccc1)N(C)C(=O)[C@@H](Cc1ccc2ccccc2c1)N(C)C(=O)/C=C/CC(C)(C)N (stereo in doubt; 7b) [listing 1 of 2 here]	8.05	–	–	–	bioavailability [1]: 41%; bioavailability [2]: 21%; F [3]: 25%; pIC50 (Rattus norvegicus [4]): 5.10; pIC50 (Rattus norvegicus [5]): 4.96; pIC50 (Rattus norvegicus [7]): < 5.00; pIC50 (Rattus norvegicus [8]): 6.85; ED50 (Sus scrofa [9]): 0.031 µmol/kg; Emax (Sus scrofa [10]): 96 ng/mL; Cmax [11]: 2320 nM; Cmax [12]: 260 nM
C[C@H](O)CNC(=O)[C@@H](Cc1cccs1)N(C)C(=O)[C@@H](Cc1ccc2ccccc2c1)N(C)C(=O)/C=C/CC(C)(C)N	7.35	120	–	–	–
CNC(=O)[C@@H](Cc1ccc(F)c(F)c1)N(C)C(=O)[C@@H](Cc1ccc2ccccc2c1)N(C)C(=O)/C=C/CC(C)(C)N	7.77	85	54	6	–
CNC(=O)[C@@H](Cc1ccccc1)N(C)C(=O)[C@@H](Cc1cccc2ccccc12)N(C)C(=O)/C=C/CC(C)(C)N	7.62	115	–	12	–
CC(C)(N)C(=O)N[C@@H](Cc1c[nH]cn1)C(=O)N[C@H](Cc1ccc2ccccc2c1)C(=O)N[C@H](Cc1ccccc1)C(=O)N[C@@H](CCCCN)C(N)=O [IPAMORELIN] (H-[Aib]H[d2Nal][dF]K-NH2)	–	–	–	–	ED50 (Sus scrofa [9]): 0.0023 µmol/kg; Emax (Sus scrofa [10]): 65 ng/mL
CNC(=O)[C@@H](Cc1ccc(I)cc1)N(C)C(=O)[C@@H](Cc1ccc2ccccc2c1)N(C)C(=O)/C=C/CC(C)(C)N	7.70	110	26	0.4	–
CN(C(=O)/C=C/CC(C)(C)N)[C@H](Cc1ccc2ccccc2c1)C(=O)N(C)[C@H](Cc1ccccc1)C(=O)NCC1CC1	8.74	105	24	14	–
CNC(=O)[C@@H](Cc1ccccc1)N(C)C(=O)[C@@H](Cc1ccc(-c2ccccc2)cc1)N(C)C(=O)/C=C/CC(C)(C)N	8.52	120	0	–	–
C[C@@H](O)CNC(=O)[C@@H](Cc1ccccc1)N(C)C(=O)[C@@H](Cc1ccc2ccccc2c1)N(C)C(=O)/C=C/CC(C)(C)N (stereo in doubt; 7o) [listing 1 of 2 here]	–	105	–	9	–
CNC(=O)[C@@H](Cc1ccccc1)N(C)C(=O)[C@@H](Cc1ccc2ccccc2c1)N(C)C(=O)/C=C/CC(C)(C)N [TABIMORELIN]	7.74	110	–	–	–
C[C@@H](O)CNC(=O)[C@@H](Cc1ccccc1)N(C)C(=O)[C@@H](Cc1ccc2ccccc2c1)N(C)C(=O)/C=C/CC(C)(C)N (stereo in doubt; 7b) [listing 2 of 2 here]	–	130	–	26	Cmax [GH] (Canis familiaris [15]): 1.8 ng/mL; Cmax [GH] (Canis familiaris [16]): 42.5 ng/mL; Cmax [GH] (Canis familiaris [17]): 6.6 ng/mL
CNC(=O)[C@@H](Cc1cccs1)N(C)C(=O)[C@@H](Cc1ccc2ccccc2c1)N(C)C(=O)/C=C/CC(C)(C)N	8.70	110	15	55	–
CN(C(=O)/C=C/CC(C)(C)N)[C@H](Cc1cccc2ccccc12)C(=O)N(C)[C@H](Cc1ccccc1)C(=O)NCC1CCCO1 (stereo partly drawn)	7.68	110	–	–	–
CNC(=O)[C@@H](Cc1ccc(F)cc1)N(C)C(=O)[C@@H](Cc1ccc2ccccc2c1)N(C)C(=O)/C=C/CC(C)(C)N	8.10	90	49	30	Cmax [GH] (Canis familiaris [15]): 2.7 ng/mL; Cmax [GH] (Canis familiaris [16]): 12 ng/mL; Cmax [GH] (Canis familiaris [17]): 4.5 ng/mL; Cmax [18]: 99 nM; Cmax [19]: 3030 nM; Cmax [20]: 247 nM; bioavailability [21]: 53%; bioavailability [22]: 138%; bioavailability [2]: 55%; pIC50 (Rattus norvegicus [4]): 5.05; pIC50 (Rattus norvegicus [5]): 4.85; pIC50 (Rattus norvegicus [7]): < 5.00; pIC50 (Rattus norvegicus [8]): 7.31; ED50 (Sus scrofa [9]): 0.129 µmol/kg; Emax (Sus scrofa [10]): 86 ng/mL
CCNC(=O)[C@@H](Cc1ccccc1)N(C)C(=O)[C@@H](Cc1ccc2ccccc2c1)N(C)C(=O)/C=C/CC(C)(C)N	7.89	105	14	–	–
CN(C(=O)/C=C/CC(C)(C)N)[C@H](Cc1ccc2ccccc2c1)C(=O)N(C)[C@H](Cc1ccccc1)C(=O)NCC1CCCO1 (stereo partly drawn)	7.80	100	17	9	–
C[C@H](O)CNC(=O)[C@@H](Cc1ccc(F)c(F)c1)N(C)C(=O)[C@@H](Cc1ccc2ccccc2c1)N(C)C(=O)/C=C/CC(C)(C)N	8.30	100	–	5	–
CNC(=O)[C@@H](Cc1ccccc1)N(C)C(=O)[C@@H](COCc1ccccc1)N(C)C(=O)/C=C/CC(C)(C)N	8.30	125	11	0.4	–
C[C@@H](O)CNC(=O)[C@@H](Cc1ccccc1)N(C)C(=O)[C@@H](Cc1ccc2ccccc2c1)N(C)C(=O)/C=C/CC(C)(C)N (stereo in doubt; 7o) [listing 2 of 2 here]	8.05	–	–	–	F [3]: 0%
C[C@H](NC(=O)C(Cc1c[nH]c2ccccc12)NC(=O)[C@@H](N)Cc1c[nH]cn1)C(=O)N[C@@H](Cc1c[nH]c2ccccc12)C(=O)NC(Cc1ccccc1)C(=O)N[C@@H](CCCCN)C(N)=O (single isomer, unassigned)	–	100	–	–	pIC50 (Rattus norvegicus [4]): 5.10; pIC50 (Rattus norvegicus [5]): 5.00; pIC50 (Rattus norvegicus [7]): < 5.00; pIC50 (Rattus norvegicus [8]): 7.42; ED50 (Sus scrofa [23]): 0.0039 µmol/kg; Emax (Sus scrofa [24]): 74 ng/mL
CNC(=O)[C@@H](Cc1ccccc1)N(C)C(=O)[C@@H](Cc1csc2ccccc12)N(C)C(=O)/C=C/CC(C)(C)N	7.46	80	–	–	–
